Test results from PMC11619344 (Antimicrobial Agents and Chemotherapy, 2024).
Values after ≈ are worked out from the molar mass of the structure shown.

Tests used:
Format in all cases: cell-based
[1] = system: ST258/KPC-35 mutant IMI 2.1; experiment: MIC, broth microdilution; settings: Klebsiella pneumoniae
[2] = system: ST512/KPC-31 mutant IMI 1.2; experiment: MIC, broth microdilution; settings: Klebsiella pneumoniae
[3] = system: ST258/KPC-35 mutant IMI 1.1; experiment: MIC, broth microdilution; settings: Klebsiella pneumoniae
[4] = system: K. pneumoniae ST258/KPC-35 (KPC-2 L169P) parental clinical isolate; experiment: MIC, broth microdilution; settings: Klebsiella pneumoniae
[5] = system: ST512/KPC-31 mutant IMI 3.2; experiment: MIC, broth microdilution; settings: Klebsiella pneumoniae
[6] = system: ST512/KPC-31 mutant IMI 1.1; experiment: MIC, broth microdilution; settings: Klebsiella pneumoniae
[7] = system: ST512/KPC-31 mutant IMI 3.1; experiment: MIC, broth microdilution; settings: Klebsiella pneumoniae
E. coli HB4 = experiment: MIC of recombinant strains; settings: Escherichia coli; E. coli HB4 (OmpC- and OmpF-deficient), no KPC
Experimental: (§1) 14.0 (www.eucast.org/clinical_breakpoints).
(§2) Recombinant strains were selected in 10 mg/L of gentamicin-LB agar plates. The β-lactam MICs were determined for the transformants according to the above-described methodology.

E. coli HB4 KPC-3 = experiment: MIC of recombinant strains; settings: Escherichia coli, HB4KPC3; E. coli HB4 expressing KPC-3 in pUCP24
Experimental: as §1, §2

E. coli HB4 KPC-3 D179N = experiment: MIC of recombinant strains; settings: Escherichia coli, HB4KPC3D179N; E. coli HB4 expressing KPC-3 D179N in pUCP24
Experimental: as §1, §2

E. coli HB4 KPC-2 = experiment: MIC of recombinant strains; settings: Escherichia coli, HB4KPC2; E. coli HB4 expressing KPC-2 in pUCP24
Experimental: as §1, §2

[8] = system: E. coli HB4 KPC-35 (KPC-2 L169P); experiment: MIC of recombinant strains; settings: Escherichia coli; E. coli HB4 expressing KPC-35 (KPC-2 L169P) in pUCP24
Experimental: as §1, §2

E. coli HB4 KPC-2 L169A = experiment: MIC of recombinant strains; settings: Escherichia coli, HB4KPC2L169A; E. coli HB4 expressing KPC-2 L169A in pUCP24
Experimental: as §1, §2

E. coli HB4 KPC-2 L169T = experiment: MIC of recombinant strains; settings: Escherichia coli, HB4KPC2L169T; E. coli HB4 expressing KPC-2 L169T in pUCP24
Experimental: as §1, §2

[9] = system: E. coli HB4 KPC-31 (KPC-3 D179Y); experiment: MIC of recombinant strains; settings: Escherichia coli; E. coli HB4 expressing KPC-31 (KPC-3 D179Y) in pUCP24
Experimental: as §1, §2

[10] = system: ST258/KPC-35 mutant IMI 2.2; experiment: MIC, broth microdilution; settings: Klebsiella pneumoniae
[11] = system: ST512/KPC-31 mutant IMI 2.2; experiment: MIC, broth microdilution; settings: Klebsiella pneumoniae
[12] = system: K. pneumoniae ST512/KPC-31 (KPC-3 D179Y) parental clinical isolate; experiment: MIC, broth microdilution; settings: Klebsiella pneumoniae
[13] = system: ST258/KPC-35 mutant IMI 3.1; experiment: MIC, broth microdilution; settings: Klebsiella pneumoniae
[14] = system: ST258/KPC-35 mutant IMI 1.2; experiment: MIC, broth microdilution; settings: Klebsiella pneumoniae
[15] = system: ST258/KPC-35 mutant IMI 3.2; experiment: MIC, broth microdilution; settings: Klebsiella pneumoniae
[16] = system: ST512/KPC-31 mutant IMI 2.1; experiment: MIC, broth microdilution; settings: Klebsiella pneumoniae

| Compound | MIC [1] | MIC [2] | MIC [3] | MIC [4] | MIC [5] | MIC [6] | MIC [7] | MIC (E. coli HB4) | MIC (E. coli HB4 KPC-3) | MIC (E. coli HB4 KPC-3 D179N) | MIC (E. coli HB4 KPC-2) | MIC [8] | MIC (E. coli HB4 KPC-2 L169A) | MIC [10] | MIC [11] | MIC [12] | MIC [13] | MIC [14] | MIC [15] | MIC [16] | also measured |
| --- | --- | --- | --- | --- | --- | --- | --- | --- | --- | --- | --- | --- | --- | --- | --- | --- | --- | --- | --- | --- | --- |
| CC(C)(O/N=C(\C(=O)N[C@@H]1C(=O)N2C(C(=O)[O-])=C(C[n+]3ccccc3)CS[C@H]12)c1csc(N)n1)C(=O)O [CAZ, ceftazidime] | 128 µg/mL (≈ 234 µM) | > 256 µg/mL | 256 µg/mL (≈ 468 µM) | > 256 µg/mL | > 256 µg/mL | > 256 µg/mL | > 256 µg/mL | 1 µg/mL | > 64 µg/mL | > 64 µg/mL | > 64 µg/mL | > 64 µg/mL | > 64 µg/mL | 128 µg/mL (≈ 234 µM) | > 256 µg/mL | > 256 µg/mL | 64 µg/mL (≈ 117 µM) | 256 µg/mL (≈ 468 µM) | 128 µg/mL (≈ 234 µM) | > 256 µg/mL | MIC (E. coli HB4 KPC-2 L169T): > 64 µg/mL; MIC [9]: > 64 µg/mL |
| CO/N=C(\C(=O)N[C@@H]1C(=O)N2C(C(=O)[O-])=C(C[N+]3(C)CCCC3)CS[C@H]12)c1csc(N)n1 [FEP, cefepime] | > 16 µg/mL | > 16 µg/mL | > 16 µg/mL | – | > 16 µg/mL | > 16 µg/mL | > 16 µg/mL | ≤ 0.5 µg/mL | 128 µg/mL | 16 µg/mL | 256 µg/mL | 64 µg/mL | 64 µg/mL | > 16 µg/mL | > 16 µg/mL | – | > 16 µg/mL | > 16 µg/mL | > 16 µg/mL | > 16 µg/mL | MIC (E. coli HB4 KPC-2 L169T): 128 µg/mL; MIC [9]: 32 µg/mL |
| CNC(C)C1CCC(N)C(OC2C(N)CC(N)C(OC3OCC(C)(O)C(NC)C3O)C2O)O1 (stereo not shown) [GEN, gentamicin] | 4 µg/mL (≈ 8.38 µM) | 8 µg/mL (≈ 16.8 µM) | 4 µg/mL (≈ 8.38 µM) | ≤ 2 µg/mL | 4 µg/mL (≈ 8.38 µM) | 4 µg/mL (≈ 8.38 µM) | 4 µg/mL (≈ 8.38 µM) | – | – | – | – | – | – | 4 µg/mL (≈ 8.38 µM) | 8 µg/mL (≈ 16.8 µM) | 4 µg/mL (≈ 8.38 µM) | 4 µg/mL (≈ 8.38 µM) | 4 µg/mL (≈ 8.38 µM) | 4 µg/mL (≈ 8.38 µM) | 4 µg/mL (≈ 8.38 µM) | – |
| C[C@@H](O)[C@H]1C(=O)N2C(C(=O)O)=C(S[C@@H]3CN[C@H](C(=O)N(C)C)C3)[C@H](C)[C@H]12 [MEM, meropenem] | > 64 µg/mL | > 64 µg/mL | > 64 µg/mL | 4 µg/mL (≈ 10.4 µM) | 32 µg/mL (≈ 83.4 µM) | > 64 µg/mL | 32 µg/mL (≈ 83.4 µM) | ≤ 0.06 µg/mL | > 64 µg/mL | 0.25 µg/mL | > 64 µg/mL | 2 µg/mL | 16 µg/mL | > 64 µg/mL | > 64 µg/mL | 4 µg/mL (≈ 10.4 µM) | 64 µg/mL (≈ 167 µM) | > 64 µg/mL | 64 µg/mL (≈ 167 µM) | > 64 µg/mL | MIC (E. coli HB4 KPC-2 L169T): 16 µg/mL; MIC [9]: 0.5 µg/mL |
| NC[C@H]1O[C@H](O[C@H]2[C@H](O)[C@@H](O[C@H]3O[C@H](CO)[C@@H](O)[C@H](N)[C@H]3O)[C@H](N)C[C@@H]2N)[C@H](N)C[C@@H]1O [TOB, tobramycin] | > 8 µg/mL | > 8 µg/mL | > 8 µg/mL | > 8 µg/mL | > 8 µg/mL | > 8 µg/mL | > 8 µg/mL | – | – | – | – | – | – | > 8 µg/mL | > 8 µg/mL | > 8 µg/mL | > 8 µg/mL | > 8 µg/mL | > 8 µg/mL | > 8 µg/mL | – |
| NCC[C@H](O)C(=O)N[C@@H]1C[C@H](N)[C@@H](O[C@H]2O[C@H](CN)[C@@H](O)[C@H](O)[C@H]2O)[C@H](O)[C@H]1O[C@H]1O[C@H](CO)[C@@H](O)[C@H](N)[C@H]1O [AMI, amikacin] | > 32 µg/mL | > 32 µg/mL | > 32 µg/mL | > 32 µg/mL | > 32 µg/mL | > 32 µg/mL | > 32 µg/mL | – | – | – | – | – | – | > 32 µg/mL | > 32 µg/mL | > 32 µg/mL | > 32 µg/mL | > 32 µg/mL | > 32 µg/mL | > 32 µg/mL | – |
| C[C@@H](O)[C@H]1C(=O)N2C(C(=O)O)=C(S[C@@H]3CN[C@H](C(=O)Nc4cccc(C(=O)O)c4)C3)[C@H](C)[C@H]12 [ETP, ertapenem] | > 8 µg/mL | > 8 µg/mL | > 8 µg/mL | > 8 µg/mL | > 8 µg/mL | > 8 µg/mL | > 8 µg/mL | – | – | – | – | – | – | > 8 µg/mL | > 8 µg/mL | > 8 µg/mL | > 8 µg/mL | > 8 µg/mL | > 8 µg/mL | > 8 µg/mL | – |
| C[C@H]1[C@H](NC(=O)/C(=N\OC(C)(C)C(=O)O)c2csc(N)n2)C(=O)N1S(=O)(=O)O [AZT, aztreonam] | > 16 µg/mL | > 16 µg/mL | > 16 µg/mL | – | > 16 µg/mL | > 16 µg/mL | > 16 µg/mL | ≤ 0.5 µg/mL | 256 µg/mL | 8 µg/mL | 512 µg/mL | 16 µg/mL | 64 µg/mL | > 16 µg/mL | > 16 µg/mL | – | > 16 µg/mL | > 16 µg/mL | > 16 µg/mL | > 16 µg/mL | MIC (E. coli HB4 KPC-2 L169T): 128 µg/mL; MIC [9]: 4 µg/mL |
| C[C@H]1COc2c(N3CCN(C)CC3)c(F)cc3c(=O)c(C(=O)O)cn1c23 [LEV, levofloxacin] | > 8 µg/mL | > 8 µg/mL | > 8 µg/mL | > 8 µg/mL | > 8 µg/mL | > 8 µg/mL | > 8 µg/mL | – | – | – | – | – | – | > 8 µg/mL | > 8 µg/mL | > 8 µg/mL | > 8 µg/mL | > 8 µg/mL | > 8 µg/mL | > 8 µg/mL | – |
